Patent publication US7700584B2 (Hangzhou Minsheng Pharmaceuticals Co., Ltd., priority 2004, dated 2010)
Values after ≈ are worked out from the molar mass of the structure shown. Where a name gives a salt, the structure may show the parent alone. Read-outs that look alike come from different tables or passages of the source.

Legend:
[1] = tested on: SMMC-7721 human hepatic carcinoma; test: In vitro inhibition rate to tumor cells (MTT), SMMC-7721; format: cell-based; conditions: for inhibition at 50 µg/mL: Homo sapiens, SMMC-7721, 50 μg/ml, read-out: inhibition rate, Results (%) SMMC-7721; for inhibition rate, Results (%) SMMC-7721: 50 μg/ml
[2] = tested on: MCF-7 human mammary adenocarcinoma; test: In vitro inhibition rate to tumor cells (MTT), MCF-7; format: cell-based; conditions: for inhibition at 50 µg/mL: Homo sapiens, MCF7, 50 μg/ml, read-out: inhibition rate, Results (%) MCF-7; for inhibition rate, Results (%) MCF-7: 50 μg/ml
[3] = biological target: T1, HIV-1 proteinase (HIV-1 PR) (Human immunodeficiency virus type 1 group M subtype B, UniProt P04585); test: Screening for in vitro activity against HIV-1 proteinase; format: biochemical
T1 construct: HIV-1 proteinase digests the fluorescent-labeled substrate; purchased
Experimental: Principle of the test: HIV-1 proteinase digests the fluorescent-labeled substrate in an optimal reaction condition and system. The activity of the enzyme can be reflected by the fluorescent intensity in the product of the enzyme reaction. Adding a sample into the reaction system can be used for screening the inhibitor of the enzyme.
1. HIV-1 PR: commercially available, stored at −85° C.
2. Treatment of the samples: Before use, sample was dissolved in DMSO at a suitable concentration, then serially diluted (5×) with double distilled water, five serial dilutions per sample.
3. Positive control: indinavir, purchased from […].
4. Methods: The diluted sample was added into the reaction buffer containing the fluorescent-labeled substrate. Then the genetic engineered target enzyme was added, and incubated in the optimal reaction condition. The fluorescent value was measured with a FLUO star Galaxy luminoscope.

[4] = tested on: Bel-7402 human hepatic carcinoma; test: In vitro inhibition rate to tumor cells (MTT), Bel-7402; format: cell-based; conditions: for inhibition at 50 µg/mL: Homo sapiens, Bel-7402, 50 μg/ml, read-out: inhibition rate, Results (%) Bel-7402; for inhibition rate, Results (%) Bel-7402: 50 μg/ml
[5] = biological target: T2, HIV-1 reverse transcriptase (Human immunodeficiency virus type 1 group M subtype B, UniProt P04585); test: Screening for the in vitro activity against the HIV-1 reverse transcriptase; format: biochemical
T2 construct: purchased
Experimental: Principle of the test: The template to which the HIV-1 reverse transcriptase interacts was covered onto the enzyme-lined template. In the optimal reaction conditions and system, HIV-1 RT will put the substrate comprising Biotin-dUTP onto the reaction template. The activity of the enzyme was measured as the amount of the integrating Biotin-dUTP in the reaction by using streptavidin-labeled horseradish peroxidase. Adding the sample to the reaction system can identify inhibitor of the enzyme.
1. HIV-1 RT: commercially available.
2. Treatment of the samples: Before use, the sample was dissolved in DMSO at a suitable concentration, then serially diluted (5×) with double distilled water, five serial dilutions per sample.
4. Methods: The diluted sample was added into the reaction buffer containing Biotin-dUTP and the genetic engineered target enzyme, and incubated in the optimal reaction conditions. A streptavidin-labeled horseradish peroxidase was added to visual the system, and OD450 was measured.

Hepatitis B virus (HBV) = format: cell-based; conditions: for (Value of the positive control - Measured Value) Value of the positive control × 100% / OD450 of HBeAg: 200 μg/ml; for (Value of the positive control - Measured Value) Value of the positive control × 100%: decrease of HBeAg relative to positive control; for OD450 of HBeAg: supernatant four days after infection, positive control 1.917, negative 0.057
[6] = tested on: Hela human cervical carcinoma; test: In vitro inhibition rate to tumor cells (MTT), Hela; format: cell-based; conditions: 50 μg/ml; for inhibition at 50 µg/mL: Homo sapiens, HeLa, read-out: inhibition rate, Results (%) Hela
HepG2 cells = test: Cell status of HepG2 cells treated with sample (HBV screening); format: cell-based; conditions: 200 μg/ml, HepG2, four days after infection
Experimental: 1.5 Screening for the agents: The HepG2 cells were counted and 1.5×10^4 cells/well were seeded into a 96-well plate. After incubation overnight in an atmosphere of CO2 at 37° C., each of the experimental samples in a given concentration was added to the cells. After incubation at 37 °C for 24 hrs, the HepG2 treated with the samples were infected with vAcGFPHBVc of 100 MOI. A negative control and a positive control were also included. Four days after infection, the growth of the cells were observed, and the HBV e antigen in the supernatant was measured with the HBV e antigen diagnostic kit.

[7] = tested on: A-549 human lung adenocarcinoma; test: In vitro inhibition rate to tumor cells (MTT), A-549; format: cell-based; conditions: for inhibition at 50 µg/mL: Homo sapiens, A549, 50 μg/ml, read-out: inhibition rate, Results (%) A-549; for inhibition rate, Results (%) A-549: 50 μg/ml
[8] = tested on: HL-60 human promyelocytic leukemia; test: In vitro inhibition rate to tumor cells (MTT), HL-60; format: cell-based; conditions: for inhibition at 50 µg/mL: Homo sapiens, HL-60, 50 μg/ml, read-out: inhibition rate, Results (%) HL-60; for inhibition rate, Results (%) HL-60: 50 μg/ml
[9] = biological target: T3, HIV-1 integrase (HIV-1 IN) (Human immunodeficiency virus type 1 group M subtype B, UniProt P04585); test: Screening for the activity against HIV-1 integrase; format: biochemical
T3 construct: a purified HIV-1 integrase was added into each well; purchased
Experimental: Principle of the test: A synthetic oligonucleotide of 30 nt was used as the donor substrate. A synthetic oligonucleotide of 20 nt was used as the target substrate. A 96-well plate was covered by the donor substrate, and a purified HIV-1 integrase was added into each well. ELISA was performed to measure the product of the target DNA chain transfer. A biotin-labeled alkali phosphatase was used to visual the system. OD value was measured by an Enzyme-linked Detector. Add a sample into the reaction system for screening the inhibitor of the enzyme.
1. HIV-1 IN: commercially available.
2. Treatment of the samples: Before use, the sample was dissolved in water or DMSO at a suitable concentration, then serially diluted (5×), four serial dilutions per sample. The stock solutions of two samples were 100-fold diluted with DMSO, then 5-fold diluted, four serial dilutions per sample. Positive control: S-y, provided by Shanghai Organic Chemistry Institute.
3. The donor substrate and target substrate: synthesized by Shanghai Biological Engineering Company (Shanghai Shenggong).
4. Methods: The diluted sample was added into a 96-well plate covered by the donor substrate, and then added into the reaction buffer containing the genetic engineered target enzyme and biotin-target substrate, incubated in the optimal reaction conditions. A biotin-labeled alkali phosphatase was used to visual the system to determine the absorbance at 450 nm (OD450).

[10] = tested on: LLC mouse Lewis lung carcinoma; test: In vitro inhibition rate to tumor cells (MTT), LLC; format: cell-based; conditions: 50 μg/ml; for inhibition at 50 µg/mL: Mus musculus, Lewis lung carcinoma
[11] = tested on: U-937 human histocytic lymphoma; test: In vitro inhibition rate to tumor cells (MTT), U-937; format: cell-based; conditions: for inhibition at 50 µg/mL: Homo sapiens, U-937, 50 μg/ml, read-out: inhibition rate, Results (%) U-937; for inhibition rate, Results (%) U-937: 50 μg/ml
MDCK (dog kidney) cells = test: Toxicity TC50 of the samples in MDCK cells (influenza screening); conditions: concentration of 50% toxicity
[12] = tested on: Hela human cervical carcinoma; test: In vitro anti-tumor IC50 (MTT), Hela; format: cell-based; conditions: Table 4
Experimental: (§1) (1) Single cell suspension was seeded into 96-well plates (the cells was diluted in the PRMI-1640 minimum medium to 3×10^4 cells/ml, […] diluted cells/well). […] The experiments were performed in quadruplicate.
(§2) (2) The medium was removed. Solutions of the anti-tumor agents (50 compounds) were prepared in a freshly prepared medium at serial concentrations. […] of the solution was added into each well. Incubation was continued for 48 hours.
(§3) (3) 20 ug of 2 mg/ml MTT was added into each well, and incubated for 4 hours.
(§4) (4) The medium was removed from the well. The microplates were swiftly turned down to throw-off the medium. […] of DMSO was added into each well, and vortexed at room temperature for 10 minutes.
(§5) (5) OD value (λ=570 nm) was measured with an Enzyme-Linked Detector.
(§6) (6) The graph of cell vitality was plotted, and IC50 was calculated.

[13] = tested on: U-937 human histocytic lymphoma; test: In vitro anti-tumor IC50 (MTT), U-937; format: cell-based; conditions: Table 4
Experimental: as §1, §2, §3, §4, §5, §6

CC(C)C1CC23OC1(O)C/C(=C\Nc1ccc(O)cc1)C2CCC3C (centres unmarked) (as salt: hydrochloride) [Compound 6, Curcumol p-hydroxy aniline hydrochloride]
melting point: 147.5 to 149.5 °C

CC(C)C1CC23OC1(O)CC(=CN1CCNCC1)C2CCC3C (centres unmarked) (as salt: hydrochloride) [Compound 8, Curcumol piperazine hydrochloride]
melting point: 150 to 152 °C

CC(C)C1CC23OC1(O)C/C(=C\NC(C)(C)C)C2CCC3C (centres unmarked) (as salt: hydrochloride) [Compound 16, Curcumol t-butyl amine hydrochloride]
melting point: 115 to 116 °C

C=C1CC2(OC(=O)CCC)OC3(CC2C(C)C)C(C)CCC13 (centres unmarked) [Compound 2, Curcumol butyrate]
inhibition at 50 µg/mL ([1]; Table 1): 12.3%
inhibition at 50 µg/mL ([1]; Table 2 (repeated screening)): 14.7%
inhibition at 50 µg/mL ([2]; Table 1): 46%
inhibition at 50 µg/mL ([2]; Table 2 (repeated screening)): 41.8%
inhibition at 0.08 µg/mL ([3]; 0.08 μg/ml, read-out: Inhibition rate): 4.13%
inhibition at 0.4 µg/mL ([3]; 0.40 μg/ml, read-out: Inhibition rate): 8.64%
inhibition at 2 µg/mL ([3]; 2.0 μg/ml, read-out: Inhibition rate): 2.98%
inhibition at 10 µg/mL ([3]; 10 μg/ml, read-out: Inhibition rate): 12.2%
IC50 ([3]; IC50, five 5× serial dilutions from 50 μg/ml): > 163 µM
inhibition at 50 µg/mL ([3]; read-out: Inhibition rate, 50 μg/ml): 12.7%
inhibition at 50 µg/mL ([4]; Table 1): 23.3%
inhibition at 50 µg/mL ([4]; Table 2 (repeated screening)): 12.8%
inhibition rate of HIV-1 reverse transcriptase ([5]; 120 ug/ml): 60%
IC50 ([5]; IC50, initial concentration 1/150 of the stock solution): < 392 µM
(Value of the positive control - Measured Value) Value of the positive control × 100% (Hepatitis B virus (HBV)): 68.34%
OD450 of HBeAg (Hepatitis B virus (HBV)): 0.607
activity against HBV (in words) (Hepatitis B virus (HBV); primary screening, HBV e antigen, HepG2, 13 samples): had the activity against HBV
inhibition at 50 µg/mL ([6]; Table 1): 70.6%
inhibition at 50 µg/mL ([6]; Table 2 (repeated screening)): 75.2%
Cell status (HepG2 cells): Normal
inhibition at 50 µg/mL ([7]; Table 1): 4.93%
inhibition at 50 µg/mL ([7]; Table 2 (repeated screening)): 9.23%
inhibition at 50 µg/mL ([8]; Table 1): 12.3%
inhibition at 50 µg/mL ([8]; Table 2 (repeated screening)): 18%
IC50 [9]: 116 µM
inhibition at 50 µg/mL ([10]; Table 1): 2.98%
inhibition at 50 µg/mL ([10]; Table 2 (repeated screening)): 0.32%
inhibition at 50 µg/mL ([11]; Table 1): 71.2%
inhibition at 50 µg/mL ([11]; Table 2 (repeated screening)): 70.3%
TC50 (MDCK (dog kidney) cells; given as dilution of the stock solution): 1/12150 of the stock solution

CCCCNC=C1CC2(O)OC3(CC2C(C)C)C(C)CCC13 (centres unmarked) [Compound 13, Curcumol n-butyl amine]
inhibition rate, Results (%) SMMC-7721 ([1]; Table 1): 3.71%
inhibition rate, Results (%) SMMC-7721 ([1]; Table 2 (repeated screening)): 0.23%
inhibition rate, Results (%) MCF-7 ([2]; Table 1): 54.67%
inhibition rate, Results (%) MCF-7 ([2]; Table 2 (repeated screening)): 50.36%
inhibition rate, Results (%) Bel-7402 ([4]; Table 1): 33.16%
inhibition rate, Results (%) Bel-7402 ([4]; Table 2 (repeated screening)): 30.25%
IC50 (ug/ml) against tumor cell lines, Hela [12]: 1.6 µg/mL (≈ 5.2 µM)
inhibition rate, Results (%) Hela ([6]; Table 1): 66.32%
inhibition rate, Results (%) Hela ([6]; Table 2 (repeated screening)): 65.92%
inhibition rate, Results (%) A-549 ([7]; Table 1): 7.59%
inhibition rate, Results (%) A-549 ([7]; Table 2 (repeated screening)): 3.56%
inhibition rate, Results (%) HL-60 ([8]; Table 1): 0.12%
inhibition rate, Results (%) HL-60 ([8]; Table 2 (repeated screening)): 0.79%
inhibition rate, Results (%) LLC ([10]; Table 1): 0.24%
inhibition rate, Results (%) LLC ([10]; Table 2 (repeated screening)): 1.32%
IC50 (ug/ml) against tumor cell lines, U-937 [13]: 0.98 µg/mL (≈ 3.19 µM)
inhibition rate, Results (%) U-937 ([11]; Table 1): 51.10%
inhibition rate, Results (%) U-937 ([11]; Table 2 (repeated screening)): 45.10%

C=C1CC2(OC)OC3(CC2C(C)C)C(C)CCC13 (centres unmarked) [Compound 25, Curcumol methyl ether]
inhibition at 50 µg/mL ([1]; Table 1): 0.24%
inhibition at 50 µg/mL ([1]; Table 2 (repeated screening)): 8.32%
inhibition at 50 µg/mL ([2]; Table 1): 9.53%
inhibition at 50 µg/mL ([2]; Table 2 (repeated screening)): 8.12%
inhibition at 50 µg/mL ([4]; Table 1): 5.68%
inhibition at 50 µg/mL ([4]; Table 2 (repeated screening)): 2.03%
(Value of the positive control - Measured Value) Value of the positive control × 100% (Hepatitis B virus (HBV)): −31.8206%
OD450 of HBeAg (Hepatitis B virus (HBV)): 2.527
inhibition at 50 µg/mL ([6]; Table 1): 81.9%
inhibition at 50 µg/mL ([6]; Table 2 (repeated screening)): 75.5%
Cell status (HepG2 cells): Poor
inhibition at 50 µg/mL ([7]; Table 1): 13.7%
inhibition at 50 µg/mL ([7]; Table 2 (repeated screening)): 14.2%
inhibition at 50 µg/mL ([8]; Table 1): -2.63%
inhibition at 50 µg/mL ([8]; Table 2 (repeated screening)): 1.23%
inhibition at 50 µg/mL ([10]; Table 1): 4.18%
inhibition at 50 µg/mL ([10]; Table 2 (repeated screening)): 1.02%
inhibition at 50 µg/mL ([11]; Table 1): 86.9%
inhibition at 50 µg/mL ([11]; Table 2 (repeated screening)): 82.4%
TC50 (MDCK (dog kidney) cells): >1000 µg/mL
